# Several values for one entry are separate records, joined by “and”; a condition that tells them apart may be missing. Equal values may be shown once. Entries after “also recorded” stand apart in the source; their conditions may differ. Read-outs that look alike come from different tables or passages of the source.
# How the values were obtained:
# [1] = test system: peptide-pulsed HHD-transfected RMAS cells; assay type: in vivo, HHD mice
# [2] = test system: peptide-pulsed HHD-transfected RMAS cells; assay type: in vivo, HHD mice; conditions: for Maximum specific lysis (%): each responder mouse
# [3] = test system: HHD-transfected RMA-S cells loaded with relevant peptide; test: CTL response of A2A2Kb mice injected s.c. with tumor epitopic peptide in IFA (51Cr-release assay); assay type: in vivo; conditions: for R/T (responder versus tested mice): responder = at least 10% specific lysis
# [4] = test system: HHD-transfected RMA-S target cells loaded with relevant peptide; test: CTL response of HHD mice co-immunized in IFA with tumor peptide and HBVc.128 helper peptide; assay type: in vivo; conditions: for R/T (responder versus tested mice): 50 μg CD8 peptide + 140 μg HBVc.128 helper in IFA; for CTL response with helper peptide (in words): co-injected with HBVc.128 helper, compared with peptide alone
# [5] = test system: HHD-transfected RMA-S cells loaded with relevant peptide; test: CTL response of HHD mice injected s.c. with tumor epitopic peptide in IFA (51Cr-release assay); assay type: in vivo; conditions: for hierarchy of CTL inducers: peptide alone in IFA, by number of responding mice and level of specific lysis; for R/T (responder versus tested mice) / lysis in % (maximal lysis for each responder mouse): peptide s.c. in IFA; for R/T (responder versus tested mice): no helper, responder = at least 10% specific lysis; for lysis in % (maximal lysis for each responder mouse): usually 60:1 E/T ratio
# [6] = test system: peptide-loaded HHD-transfected RMA-S cells and HHD-transfected HeLa cells expressing the polyepitope; test: Melanoma polyepitopic pCMV-B10 DNA immunization of HHD mice, CTL assay; assay type: in vivo; conditions: pCMV-B10 DNA with 10 melanoma epitopes, FIG. 1C and D
# HLA-A2.1 molecules = biological target: T1, HLA-A2.1 molecules (Homo sapiens, UniProt P04439, D140Y/D185E/D98H/E176V/E277Q/G131W/G231S/I119V/I121R/I166T/I218V/L300P/L318F/N151K/N90K/P208A/P217A/Q86G/Q94H/R138H/R169H/T345S); assay type: binding
# T1 construct: Using TAP-deficient, HLA-A2.1^+ T2 cells, we evaluated these parameters in an immunofluorescence assay; endogenous in cells; host or cells: T2 cells (TAP-deficient, HLA-A2.1+)
# [7] = test system: HHD-transfected RMAS cells loaded with relevant peptide; test: CTL response of HHD mice immunized with peptide-loaded dendritic cells; assay type: in vivo; conditions: for lysis in % (highest specific lysis): individual mice 1-6, usually 60/1 E/T; for lysis in % after a second in vitro restimulation: second restimulation with 10% TCGF, individual mice 1-6
# [8] = test system: HHD-transfected RMAS cells loaded with relevant peptide; test: CTL response of HHD mice immunized with monoepitopic pCMV-B10 DNA; assay type: in vivo; conditions: for lysis in % (highest specific lysis): pCMV-B10 DNA encoding the epitope, individual mice 1-6
# [9] = test system: HHD-transfected RMAS cells loaded with relevant peptide; test: CTL response of HHD mice immunized with lipopeptides; assay type: in vivo; conditions: lipopeptide of the epitope; individual mice 1-6
# [10] = test system: HHD-transfected RMAS cells loaded with relevant peptide; test: CTL response of HHD mice immunized with recombinant Ty-VLP; assay type: in vivo; conditions: for lysis in % (highest specific lysis): recombinant Ty-VLP carrying the epitope, individual mice 1-6
# [11] = with helper peptide, 50 μg CD8 + 140 μg HBV core T13L in IFA
# [12] = by number of responder mice and strength of responses, peptide in IFA
# [13] = without helper peptide, 100 μg peptide s.c. in IFA
# [14] = wild-type HIV 1 peptides, reference I9V, T2 cells
Sequence,"classification as immunogen [2, 12]","Responder/tested mice [2, 13]",R/T (responder versus tested mice) [3],R/T (responder versus tested mice) [4],hierarchy of CTL inducers [5],R/T (responder versus tested mice) [5],CTL response against the epitope after melanoma polyepitope DNA immunization (in words) [6],RA (relative affinity) (HLA-A2.1 molecules),other results
"AFHHVAREL [A9L, HIV 1 NEF (188-196) CD8 epitopic peptide]",inefficient,0/6,,,,,,,"Responder/tested mice [1, 11]: 0/6"
ESELVNQIIEQ [E11Q],,,,,,,,,"Responder/tested mice ([1]; mouse, in vivo): 0/6; classification as immunogen ([2]; mouse, in vivo): inefficient; Responder/tested mice ([2]; mouse, in vivo, sc): 0/6"
FLWGPRALV [MAGE-3.271],,,0/6,6/6,weak,1/6,No specific lysis,,CTL response with helper peptide (in words) [4]: good CTL responses in a large proportion of mice; lysis in % (maximal lysis for each responder mouse) [5]: (33) %
"IISAVVGIL [Her2/neu.654, Her2/neu 654-662 epitopic peptide]",,,0/6,0/6,weak,1/6,,,lysis in % (maximal lysis for each responder mouse) [5]: (42) %
ILKEPVHGV [I9V],strong,4/6,,,,,,,"Responder/tested mice [1, 11]: 5/6"
"ILTVILGVL [Melan-A/MART-1.32, Melan-A/MART-1 32-40 epitopic peptide]",,,0/6,1/6,inefficient,0/6,did not elicit CTL responses; also recorded: No specific lysis,21.1,"lysis in % ([4]; co-injected with HBVc.128 helper peptide in IFA, each responder mouse): (10) %"
ITDQVPFSV [gp100.209],,,0/6,3/6,weak,1/6,elicited CTL responses depending on mice; also recorded: No specific lysis,,lysis in % (maximal lysis for each responder mouse) [5]: (23) %
KTWGQYWQV [gp100.154],,,5/6,9/11,strong,4/6,Strong responses,,CTL response with helper peptide (in words) [4]: stronger responses in a larger proportion of mice
LLDGTATLRL [gp100.457],,,0/6,5/6,inefficient,0/6,Significant responses,1.65,CTL response with helper peptide (in words) [4]: good CTL responses in a large proportion of mice
LLGRNSFEV [p53.264],,,0/6,2/3,inefficient,0/7,,,
"LLWKGEGAV [L9V, HIV 1 POL (956-964) CD8 epitopic peptide]",intermediate,3/6,,,,,,,
"MLLAVLYCL [Tyrosinase.1, Tyrosinase 1-9 epitopic peptide]",,,0/6,5/6,inefficient,0/10,did not elicit CTL responses; also recorded: No specific lysis,>60,CTL response with helper peptide (in words) [4]: good CTL responses in a large proportion of mice
"PLTFGWCFKL [P10L, HIV 1 NEF (134-143) CD8 epitopic peptide]",inefficient,0/6,,,,,,,"RA (relative affinity) (HLA-A2.1 molecules; [14]): >100/ND; Responder/tested mice [1, 11]: 0/6"
"PLVKLWYQL [P9L, HIV 1 POL (576-584) CD8 epitopic peptide]",inefficient,0/6,,,,,,,"RA (relative affinity) (HLA-A2.1 molecules; [14]): >100/ND; Responder/tested mice [1, 11]: 0/6"
"RLRDLLLIV [R9V, HIV 1 ENV gp41 (260-268) CD8 epitopic peptide]",intermediate,1/6,,,,,,>100/ND,"Responder/tested mice [1, 11]: 0/6; Maximum specific lysis (%) ([2]; without helper peptide): 14%"
"RMPEAAPPV [p53.65, p53 65-73 epitopic peptide]",,,0/6,5/6,intermediate,4/6,,0.91,CTL response with helper peptide (in words) [4]: stronger responses in a larger proportion of mice
"STPPPGTRV [p53.149, p53 149-157 epitopic peptide]",,,0/6,3/6,inefficient,0/6,,,
"TLGIVCPI [HPV E7.86, HPV16 E7 86-93 epitopic peptide]",,,2/6,2/6,inefficient,0/6,,,
TLNAWVKVV [T9V],intermediate,2/6,,,,,,,"Responder/tested mice [1, 11]: 3/5"
"VIYQYMDDL [V9L, HIV 1 POL (334-342) CD8 epitopic peptide]",intermediate,1/6,,,,,,,"Responder/tested mice [1, 11]: 1/6; Maximal specific lysis (%) ([1]; with helper peptide, each responder mouse): 57%; Maximum specific lysis (%) ([2]; without helper peptide): 34%"
"VLYRYGSFSV [gp100.476, gp100 476-485 human melanoma epitopic peptide]",,,1/6,6/7,weak,2/6,did not elicit CTL responses,10,lysis in % (maximal lysis for each responder mouse) ([3]; usually 60:1 E/T ratio): (29) %
"YLSGANLNL [CEA.571, CEA 571-579 epitopic peptide]",,,0/6,3/6,strong,6/6,,,"lysis in % (highest specific lysis) [7]: 4% (2×) and 1% (2×) and 0% and 2%; lysis in % after a second in vitro restimulation [7]: (1) %; also recorded: (5) %; also recorded: (2) %; also recorded: (0) %; also recorded: (22) %; lysis in % (highest specific lysis) [8]: 19% and 66% and 40% and 65% and 62% and 55%; CTL responses (in words) ([8]; recombinant pCMV-B10-DNA, all animals tested): strong CTL responses; CTL response with helper peptide (in words) [4]: less immunogenic; lysis in % (highest specific lysis) [9]: 0% (2×) and 8% (2×) and 34% and 3%; lysis in % (highest specific lysis) [10]: 56% and 59% and 51% and 58% and 46% and 62%; CTL responses (in words) ([10]; recombinant Ty-VLP, all animals tested): strong CTL responses"
YMDGTMSQV [Tyrosinase.368-D],,,0/6,2/6,weak,1/6,elicited CTL responses depending on mice,2.27,lysis in % (highest specific lysis) [7]: 12% and 20% and 8% and 3% and 7% and 23%; lysis in % after a second in vitro restimulation [7]: (64) %; also recorded: (92) %; also recorded: (71) %; also recorded: (68) %; also recorded: (56) %; lysis in % (highest specific lysis) [8]: 57% and 55% and 28% (2×) and 58% and 56%; lysis in % (highest specific lysis) [9]: 0% (3×) and 10% and 1% and 4%; lysis in % (maximal lysis for each responder mouse) [5]: (10) %
YMNGTMSOV [Tyrosinase.368-N],,,0/6,5/12,intermediate,4/15,,2.2,lysis in % (highest specific lysis) [7]: 0% (4×) and 8% and 15%; lysis in % after a second in vitro restimulation [7]: (3) %; also recorded: (17) %; also recorded: (30) %; also recorded: (80) %; also recorded: (61) %; also recorded: (1) %; lysis in % (highest specific lysis) [8]: 6% and 12% and 16% and 13% and 11% and 38%; lysis in % (highest specific lysis) [9]: 51% and 20% and 0% and 5% and 11% and 12%; lysis in % (highest specific lysis) [10]: 0% and 61% and 58% and 39% and 29% and 17%
